Assay results published in patent US9206136B2, “Pyrazolyl-based carboxamides I” (Grünenthal GmbH, priority 2013, dated 2015).

Key:
[1] = biological target: T1, CRAC channel (endogenous SOC in HEK293 cells) (Homo sapiens, UniProt Q96D31); assay: HEK Calcium Influx Assay (FLIPR); type: cell-based; conditions: 10 μM compound, thapsigargin store depletion, Ca2+ signal 9.5-10 min post-administration, read-out: % inhib. [@ 10 μM] FLIPR
T1 construct: host or cells: HEK293
Method: Compounds of the invention have been tested for their effects on CRAC channels according to the following or similar procedures.
The effect of compounds of the invention on intracellular [Ca^2+] was tested in the HEK293 cell line (ECACC).
HEK293 cells were cultured in DMEM/F12/Glutamax (Gibco) containing 10% FCS (Gibco), and maintained at 37° C., 5% CO2. Cell were split twice a week [3·10^6 (Mon-Thu) and 1·10^6 (Thu-Mon) cells/50 ml medium in T-175 ZK culture flasks, respectively]. 24 hours pre-experiment, cells were seeded on 96 well plates (Poly-D-Lysine 96well Black/Clear Plate, BD Biocoat REF 356640) at a density of 40,000 cells/well in DMEM/F12 (Gibco) containing 10% FCS (Gibco), and maintained at 37° C., 5% CO2.
Prior to store-depletion, cell culture medium was removed and cells were loaded with the a Ca^2+-sensitive fluorescent dye comprised within the Calcium-4-assay kit (Molecular Devices) in nominally Ca^2+-free HBS buffer (140 mM NaCl, 4 mM KCl, 0.2 mM MgCl2, 11 mM D-glucose, and 10 mM HEPES, pH 7.4) according to manufacturer's instruction for 60 min at 37° C., 5% CO2.
Passive depletion of intracellular Ca^2+-stores was then triggered by employing the SERCA inhibitor thapsigargin (2 μM final) for 10 min in the dark (rt). To prevent immediate Ca^2+-entry via the activated Store-operated channels (SOCs), cells were maintained in Ca^2+-free HBS buffer comprising 100 μM EGTA during store-depletion.
Intracellular changes in [Ca^2+] were subsequently monitored with the FLIPR device (Molecular Devices). In brief, baseline imaging post-store depletion was allowed for 1 min before adjusting the extracellular buffer to 3 mM CaCl2. Increases in intracellular [Ca^2+] due to pre-activated SOC channels were monitored for 15 min until intracellular Ca^2+ levels had declined into a steady-state. Finally, compounds were administered and Ca^2+ signals were recorded for additional 10 min.
Inhibition of endogenous SOC in HEK293 cells was quantified employing the average Ca^2+ signal measured from 9.5-10 min post-administration. Zero percent inhibition (MAX) was defined as the Ca^2+ signal recorded from wells to which DMSO-only had been added instead of compound. Hundred percent inhibition (MIN) was defined as the signal obtained from wells in which cells haven't been treated with TG prior to Ca^2+ addition and to which DMSO-only had been added instead of compound. For routine IC50 determinations of compounds, 8 concentrations of a serial dilution (1:3.16) were tested, starting off from 10 μM. Reliable IC50's could consequently be determined only, if they were at least sub 2.5-3 μM.

[2] = test system: Interleukin-2 (IL-2) production/release in Jurkat T cell line clone E6-1; assay: Jurkat IL-2 Production Assay; type: cell-based; conditions: Homo sapiens; Jurkat T cells stimulated with 15 μg/ml PHA for 22 hours; IL-2 in supernatant (AlphaLisa)
Method: Jurkat IL-2 Production Assay
The effect of compounds of the invention on Interleukin-2 (IL-2) production/release was tested in the Jurkat T cell line (ECACC) clone E6-1.
Jurkat T cells were cultured in DMEM/F12/Glutamax (Gibco) containing 10% FCS (Gibco), and maintained at 37° C., 5% CO2. Cells were split twice a week [5·10^6 (Mon-Thu) and 1·10^7 (Thu-Mon) cells/50 ml medium in T-175 ZK culture flasks, respectively].
Prior to experiment, cells were seeded on 96 well plates (Cellstar 96 Well; Cat No. 655180, Greiner bio-one) at a density of 5·10^5 cells/well in DMEM/F12/Glutamax (Gibco) containing 10% FCS (Gibco), and incubated for 60 min at 37° C., 5% CO2. Subsequently, compounds were added and cells were allowed to incubate for 30 min at 37° C., 5% CO2. Cells were then stimulated with 15 μg/ml Phyto-hemagglutinin (PHA; Sigma) for 22 hours at 37° C., 5% CO2.
Before sampling of the supernatants, cells were spun down (200*g/5 min/RT). The amount of IL-2 released into the supernatant was quantified with the human IL-2 AlphaLisa kit (Perkin Elmer) according to manufacturer's instructions. Luminescence proximity measurements were carried out in the Synergy H4 reader (BioTek) employing the fluorescence setting of the reader (ex: 680/30 nm; em: 620/40 nm).
Inhibition of IL-Production/Release in/from Jurkat T Cells Cells was Quantified as Follows:
Zero percent inhibition (MAX) was defined as the [IL-2] determined in supernatants derived from cells to which PHA & DMSO-only had been added instead of compound. Hundred percent inhibition (MIN) was defined as the [IL-2] determined in supernatants derived from cells that had been pre-treated with 1 μM CyclosporineA (Sigma) before the addition of 15 μg/ml PHA.
For routine IC50 determinations of compounds, 8 concentrations of a serial dilution (1:3.16) were tested, starting off from 10 μM.

T1 sequence (Q96D31 whole entry): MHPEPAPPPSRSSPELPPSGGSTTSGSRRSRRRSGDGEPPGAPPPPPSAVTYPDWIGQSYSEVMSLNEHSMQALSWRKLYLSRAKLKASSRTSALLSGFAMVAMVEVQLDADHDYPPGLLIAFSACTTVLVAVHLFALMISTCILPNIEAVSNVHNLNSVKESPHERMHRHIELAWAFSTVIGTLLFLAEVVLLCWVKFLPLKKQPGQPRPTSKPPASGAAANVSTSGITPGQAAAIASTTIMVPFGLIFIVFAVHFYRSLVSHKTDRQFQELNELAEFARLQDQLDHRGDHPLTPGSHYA

Structure (SMILES) | inhibition at 10 µM [1] | IC50 [2]
Cc1ccc(-c2nccs2)cc1-c1cc(C(=O)Nc2ccncc2F)nn1C [Example 1, N-(3-Fluoro-pyridin-4-yl)-1-methyl-5-(2-methyl-5-thiazol-2-yl-phenyl)-1H-pyrazole-3-carboxylic acid amide] | > 70% | 1 to 5 µM
Cc1ccc(-c2ncco2)cc1-c1cc(C(=O)Nc2ccncc2F)nn1C [Example 2, N-(3-Fluoro-pyridin-4-yl)-1-methyl-5-(2-methyl-5-oxazol-2-yl-phenyl)-1H-pyrazole-3-carboxylic acid amide] | 50 to 70% | –
Cc1ccc(-c2nccs2)cc1-c1cc(C(=O)Nc2c(F)cccc2F)nn1C [Example 3, N-(2,6-Difluoro-phenyl)-1-methyl-5-(2-methyl-5-thiazol-2-yl-phenyl)-1H-pyrazole-3-carboxylic acid amide] | < 50% | < 0.5 µM
COc1ccc(NC(=O)c2cc(-c3cc(-c4nccs4)ccc3C)n(C)n2)cc1 [Example 4, N-(4-Methoxyphenyl)-1-methyl-5-(2-methyl-5-thiazol-2-yl-phenyl)-1H-pyrazole-3-carboxylic acid amide] | 50 to 70% | 1 to 5 µM
Cc1ccc(-c2nccs2)cc1-c1cc(C(=O)Nc2ccc(F)cc2)nn1C [Example 5, N-(4-Fluorophenyl)-1-methyl-5-(2-methyl-5-thiazol-2-yl-phenyl)-1H-pyrazole-3-carboxylic acid amide] | 50 to 70% | 1 to 5 µM
Cc1cnccc1NC(=O)c1cc(-c2cc(-c3nccs3)ccc2C)n(C)n1 [Example 6, 1-Methyl-N-(3-methyl-pyridin-4-yl)-5-(2-methyl-5-thiazol-2-yl-phenyl)-1H-pyrazole-3-carboxylic acid amide] | 50 to 70% | 1 to 5 µM
COc1ccc(-c2nccs2)cc1-c1cc(C(=O)Nc2ccncc2F)nn1C [Example 7, N-(3-Fluoro-pyridin-4-yl)-5-(2-methoxy-5-thiazol-2-yl-phenyl)-1-methyl-1H-pyrazole-3-carboxylic acid amide] | < 50% | 0.5 to 1 µM
COc1ccc(-c2nccs2)cc1-c1cc(C(=O)Nc2c(F)cccc2F)nn1C [Example 8, N-(2,6-Difluoro-phenyl)-5-(2-methoxy-5-thiazol-2-yl-phenyl)-1-methyl-1H-pyrazole-3-carboxylic acid amide] | > 70% | 0.5 to 1 µM
Cn1nc(C(=O)Nc2ccncc2F)cc1-c1cc(-c2nccs2)ccc1Cl [Example 9, 5-(2-Chloro-5-thiazol-2-yl-phenyl)-N-(3-fluoro-pyridin-4-yl)-1-methyl-1H-pyrazole-3-carboxylic acid amide] | 50 to 70% | 1 to 5 µM
Cn1nc(C(=O)Nc2c(F)cccc2F)cc1-c1cc(-c2nccs2)ccc1Cl [Example 10, 5-(2-Chloro-5-thiazol-2-yl-phenyl)-N-(2,6-difluoro-phenyl)-1-methyl-1H-pyrazole-3-carboxylic acid amide] | < 50% | < 0.5 µM
Cc1ccc(-c2ccncc2)cc1-c1cc(C(=O)Nc2ccncc2F)nn1C [Example 11, N-(3-Fluoro-pyridin-4-yl)-1-methyl-5-(2-methyl-5-pyridin-4-yl-phenyl)-1H-pyrazole-3-carboxylic acid amide] | > 70% | 1 to 5 µM
Cc1ccc(-c2ccncc2)cc1-c1cc(C(=O)Nc2c(F)cccc2F)nn1C [Example 12, N-(2,6-Difluoro-phenyl)-1-methyl-5-(2-methyl-5-pyridin-4-yl-phenyl)-1H-pyrazole-3-carboxylic acid amide] | > 70% | < 0.5 µM
Cc1ccc(-c2cncnc2)cc1-c1cc(C(=O)Nc2c(F)cccc2F)nn1C [Example 13, N-(2,6-Difluoro-phenyl)-1-methyl-5-(2-methyl-5-pyrimidin-5-yl-phenyl)-1H-pyrazole-3-carboxylic acid amide] | < 50% | < 0.5 µM
Cn1nc(C(=O)Nc2c(F)cccc2F)cc1-c1cccc(-c2nccs2)c1 [Example 14, N-(2,6-Difluoro-phenyl)-1-methyl-5-(3-thiazol-2-yl-phenyl)-1H-pyrazole-3-carboxylic acid amide] | > 70% | < 0.5 µM
COc1ccc(C2CC2)cc1-c1cc(C(=O)Nc2ccncc2F)nn1C [Example 15, 5-(5-Cyclopropyl-2-methoxy-phenyl)-N-(3-fluoro-pyridin-4-yl)-1-methyl-1H-pyrazole-3-carboxylic acid amide] | > 70% | 1 to 5 µM
COc1ccc(C2CC2)cc1-c1cc(C(=O)Nc2c(F)cccc2F)nn1C [Example 16, 5-(5-Cyclopropyl-2-methoxy-phenyl)-N-(2,6-difluoro-phenyl)-1-methyl-1H-pyrazole-3-carboxylic acid amide] | > 70% | < 0.5 µM
Cc1cnc(C2CC2)nc1-c1cc(C(=O)Nc2c(F)cccc2F)nn1C [Example 17, 5-(2-Cyclopropyl-5-methyl-pyrimidin-4-yl)-N-(2,6-difluoro-phenyl)-1-methyl-1H-pyrazole-3-carboxylic acid amide] | 50 to 70% | –
Cc1ccc(-c2ncco2)cc1-c1cc(C(=O)Nc2c(F)cccc2F)nn1C [Example 18, N-(2,6-Difluoro-phenyl)-1-methyl-5-(2-methyl-5-oxazol-2-yl-phenyl)-1H-pyrazole-3-carboxylic acid amide] | < 50% | 0.5 to 1 µM
Cc1noc(-c2ccc(C)c(-c3cc(C(=O)Nc4c(F)cccc4F)nn3C)c2)n1 [Example 19, N-(2,6-Difluoro-phenyl)-1-methyl-5-[2-methyl-5-(3-methyl-[1,2,4]oxadiazol-5-yl)-phenyl]-1H-pyrazole-3-carboxylic acid amide] | < 50% | 1 to 5 µM
Cc1ccc(-c2ccnc(N)c2)cc1-c1cc(C(=O)Nc2c(F)cccc2F)nn1C [Example 20, 5-[5-(2-Amino-pyridin-4-yl)-2-methyl-phenyl]-N-(2,6-difluoro-phenyl)-1-methyl-1H-pyrazole-3-carboxylic acid amide] | 50 to 70% | 0.5 to 1 µM
Cc1ccc(C2CCOCC2)cc1-c1cc(C(=O)Nc2ccncc2F)nn1C [Example 21, N-(3-Fluoro-pyridin-4-yl)-1-methyl-5-(2-methyl-5-tetrahydro-pyran-4-yl-phenyl)-1H-pyrazole-3-carboxylic acid amide] | 50 to 70% | –
Cc1c(C(=O)Nc2ccncc2F)nn(C)c1-c1cccc(-c2nccs2)c1 [Example 29, N-(3-Fluoro-pyridin-4-yl)-1,4-dimethyl-5-(3-thiazol-2-yl-phenyl)-1H-pyrazole-3-carboxylic acid amide] | > 70% | –
